Measurements reported in US12252524B2, “GIP/GLP1 co-agonist compounds” (Eli Lilly and Company, priority 2018, dated 2025).
Numbered stars: 1 amine (or outer) side, 2 acyl side, 3 side chain; on linkers, the order of the positions; unused ones are H or OH. Square brackets hold non-standard residues; d marks the D form. Side chains are listed from the residue outwards. Peptide text beside a SMILES is read from it. * marks the point of attachment. C20 diacid = O=C(O)CCCCCCCCCCCCCCCCCCC(=O)*; C18 diacid = O=C(O)CCCCCCCCCCCCCCCCC(=O)*; αMePhe(2-F) = C[C@](N)(Cc1ccccc1F)C(=O)O; γGlu = O=C(O)[C@H](CCC(=O)[*:2])N[*:1]; αMeF = C[C@](N)(Cc1ccccc1)C(=O)O; αMeL = CC(C)C[C@](C)(N)C(=O)O; AEEA = NCCOCCOCC(=O)O; Aib = CC(C)(N)C(=O)O

Tests used:
human Gcg receptor = biological target: T1, human Gcg receptor (Homo sapiens, UniProt P47871); assay: [125I]-Glucagon binding (SPA), human Gcg receptor; settings: read-out: hGLcgR Ki, nM (SEM, n)
T1 construct: expressed in transfected cells; crude membranes
T1 sequence (P47871 26-477): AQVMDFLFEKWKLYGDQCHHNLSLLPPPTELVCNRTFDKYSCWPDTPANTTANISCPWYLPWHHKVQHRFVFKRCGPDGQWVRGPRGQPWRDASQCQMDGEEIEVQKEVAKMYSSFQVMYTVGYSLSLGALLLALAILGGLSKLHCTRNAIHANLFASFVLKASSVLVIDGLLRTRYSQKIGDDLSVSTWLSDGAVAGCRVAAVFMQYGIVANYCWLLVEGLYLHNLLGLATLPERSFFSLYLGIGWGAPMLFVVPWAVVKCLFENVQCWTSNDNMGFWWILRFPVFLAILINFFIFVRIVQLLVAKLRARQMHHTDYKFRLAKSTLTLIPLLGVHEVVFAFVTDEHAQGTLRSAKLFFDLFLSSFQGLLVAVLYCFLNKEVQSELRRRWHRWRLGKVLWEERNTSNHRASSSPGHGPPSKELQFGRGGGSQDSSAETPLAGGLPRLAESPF
Outline: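 Crude membranes from cells expressing the receptor, prepared by hypotonic lysis in 50 mM Tris HCl pH 7.5 with protease inhibitors, homogenization and differential centrifugation, were used in a WGA-bead SPA. Binding buffer: 25 mM HEPES pH 7.4, 2.5 mM CaCl2, 1 mM MgCl2, bacitracin, Tween-20.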

human GIP receptor = biological target: T2, human GIP receptor (Homo sapiens, UniProt P48546); assay: [125I]-GIP binding (SPA), human GIP receptor; settings: read-out: hGIPR Ki, nM (SEM, n)
T2 construct: expressed in transfected cells; crude membranes
T2 sequence (P48546 22-466): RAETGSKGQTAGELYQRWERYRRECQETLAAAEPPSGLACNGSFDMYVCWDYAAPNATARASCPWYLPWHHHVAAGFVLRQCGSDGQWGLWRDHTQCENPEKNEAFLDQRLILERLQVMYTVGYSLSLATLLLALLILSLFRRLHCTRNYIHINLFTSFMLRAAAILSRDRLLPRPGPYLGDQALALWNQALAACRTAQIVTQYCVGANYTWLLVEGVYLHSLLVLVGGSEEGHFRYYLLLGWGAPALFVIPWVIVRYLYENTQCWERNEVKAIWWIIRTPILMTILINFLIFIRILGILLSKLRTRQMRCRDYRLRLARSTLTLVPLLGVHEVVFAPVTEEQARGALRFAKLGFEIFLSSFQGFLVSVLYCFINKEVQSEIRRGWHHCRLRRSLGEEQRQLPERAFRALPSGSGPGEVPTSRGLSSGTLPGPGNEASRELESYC

[1] = biological target: human GLP-1 receptor (GLP-1R) (Homo sapiens, UniProt P43220); assay: cAMP pharmacological functional assay in presence of casein, hGLP-1R; format: cell-based; settings: HEK293 cells expressing hGLP-1R, 0.1% Casein, geometric mean; read-out: hGLP1R cAMP Rel EC50 nM (SEM, n)
Chain of human GLP-1 receptor (GLP-1R) (P43220 24-463): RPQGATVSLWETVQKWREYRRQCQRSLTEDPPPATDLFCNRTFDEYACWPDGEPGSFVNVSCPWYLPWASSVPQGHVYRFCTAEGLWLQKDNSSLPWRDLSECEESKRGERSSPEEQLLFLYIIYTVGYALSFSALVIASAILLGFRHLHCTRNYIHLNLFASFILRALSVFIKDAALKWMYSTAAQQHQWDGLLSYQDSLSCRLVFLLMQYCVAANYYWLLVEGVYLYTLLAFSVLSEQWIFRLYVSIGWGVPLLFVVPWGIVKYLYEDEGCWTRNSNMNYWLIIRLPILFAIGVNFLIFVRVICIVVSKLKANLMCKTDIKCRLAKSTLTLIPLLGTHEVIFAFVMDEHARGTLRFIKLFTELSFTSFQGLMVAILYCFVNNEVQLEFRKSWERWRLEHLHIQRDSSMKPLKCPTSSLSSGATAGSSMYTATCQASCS

[2] = biological target: T3, gastric inhibitory peptide receptor (GIPR) (Homo sapiens, UniProt P48546); assay: cAMP pharmacological functional assay in presence of casein, hGIPR; format: cell-based; settings: HEK293 cells expressing hGIPR, 0.1% Casein, geometric mean; read-out: hGIPR cAMP Rel EC50 nM (SEM, n)
T3 sequence (P48546 22-466): T2 sequence (P48546 22-466)

human GLP-1R = human GLP-1R (Homo sapiens, UniProt P43220); assay: [125I]-GLP-1 binding (SPA), human GLP-1 receptor; design: expressed in transfected cells; crude membranes; settings: read-out: hGLP1R Ki, (nM) (SEM, n)
Chain of human GLP-1R (P43220 24-463): as above
Outline: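 Assay buffer: HEPES 25 mM, pH 7.4, CaCl2 2.5 mM, MgCl2 1 mM, with EDTA-free protease inhibitors. Receptor came from crude cell membranes prepared by homogenization and centrifugation at 4° C. IC50s came from four-parameter fits (maximum, minimum, IC50, Hill slope) and were expressed as Ki geometric means with SEM.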

| Compound | Ki (human Gcg receptor) [nM] | Ki (human GIP receptor) [nM] | EC50 [1] [nM] | EC50 [2] [nM] | Ki (human GLP-1R) [nM] |
| --- | --- | --- | --- | --- | --- |
| CC[C@H](C)[C@H](NC(=O)[C@H](CC(C)C)NC(=O)[C@H](Cc1ccc(O)cc1)NC(=O)[C@@H](NC(=O)[C@@H](NC(=O)[C@H](Cc1ccccc1)NC(=O)[C@H](CCC(=O)O)NC(=O)C(C)(C)NC(=O)[C@H](CCC(N)=O)NC(=O)[C@H](C)NC(=O)[C@H](CCCCNC(=O)COCCOCCNC(=O)COCCOCCNC(=O)CC[C@H](NC(=O)CCCCCCCCCCCCCCCCCCC(=O)O)C(=O)O)NC(=O)[C@H](CCC(=O)O)NC(=O)[C@H](CC(=O)O)NC(=O)[C@H](CC(C)C)NC(=O)[C@](C)(CC(C)C)NC(=O)[C@@H](NC(=O)[C@H](CO)NC(=O)[C@H](Cc1ccc(O)cc1)NC(=O)[C@H](CC(=O)O)NC(=O)[C@H](CO)NC(=O)[C@@H](NC(=O)[C@](C)(Cc1ccccc1F)NC(=O)[C@@H](NC(=O)CNC(=O)[C@H](CCC(=O)O)NC(=O)C(C)(C)NC(=O)[C@@H](N)Cc1ccc(O)cc1)[C@@H](C)O)[C@@H](C)O)[C@@H](C)CC)[C@@H](C)CC)C(C)C)C(=O)N[C@@H](CCC(=O)O)C(=O)NCC(=O)NCC(=O)N1CCC[C@H]1C(=O)N[C@@H](CO)C(=O)N[C@@H](CO)C(=O)NCC(=O)N[C@@H](C)C(=O)N1CCC[C@H]1C(=O)N1CCC[C@H]1C(=O)N1CCC[C@H]1C(=O)N[C@@H](CO)C(N)=O [Example 149] (H-Y[Aib]EGT[αMePhe(2-F)]TSDYSI[αMeL]LDEK([AEEA-AEEA-γGlu-C20 diacid])AQ[Aib]EFIVYLIEGGPSSGAPPPS-NH2) | 127 | 0.0708 | 0.0916 | 0.0711 | 26.1 |
| CC[C@H](C)[C@H](NC(=O)[C@H](CC(C)C)NC(=O)[C@H](Cc1ccc(O)cc1)NC(=O)[C@@H](CCC(=O)O)NC(=O)[C@@H](NC(=O)[C@H](Cc1ccccc1)NC(=O)[C@H](CCC(=O)O)NC(=O)C(C)(C)NC(=O)[C@H](CCC(N)=O)NC(=O)[C@H](C)NC(=O)[C@H](CCCCNC(=O)COCCOCCNC(=O)COCCOCCNC(=O)CCCCCCCCCCCCCCCCC(=O)O)NC(=O)[C@H](CCC(=O)O)NC(=O)[C@H](CC(=O)O)NC(=O)[C@H](CC(C)C)NC(=O)[C@](C)(CC(C)C)NC(=O)[C@@H](NC(=O)[C@H](CO)NC(=O)[C@H](Cc1ccc(O)cc1)NC(=O)[C@H](CC(=O)O)NC(=O)[C@H](CO)NC(=O)[C@@H](NC(=O)[C@](C)(Cc1ccccc1F)NC(=O)[C@@H](NC(=O)CNC(=O)[C@H](CCC(=O)O)NC(=O)C(C)(C)NC(=O)[C@@H](N)Cc1ccc(O)cc1)[C@@H](C)O)[C@@H](C)O)[C@@H](C)CC)[C@@H](C)CC)C(=O)N[C@@H](CCC(=O)O)C(=O)NCC(=O)NCC(=O)N1CCC[C@H]1C(=O)N[C@@H](CO)C(=O)N[C@@H](CO)C(=O)NCC(=O)N[C@@H](C)C(=O)N1CCC[C@H]1C(=O)N1CCC[C@H]1C(=O)N1CCC[C@H]1C(=O)N[C@@H](CO)C(N)=O [Example 214] (H-Y[Aib]EGT[αMePhe(2-F)]TSDYSI[αMeL]LDEK([AEEA-AEEA-C18 diacid])AQ[Aib]EFI[dE]YLIEGGPSSGAPPPS-NH2) | 126 | 0.0304 | 0.0221 | 0.0251 | 1.99 |
| CC[C@H](C)[C@H](NC(=O)[C@H](CC(C)C)NC(=O)[C@H](Cc1ccc(O)cc1)NC(=O)[C@H](CCC(=O)O)NC(=O)[C@H](CC(C)C)NC(=O)[C@H](Cc1ccccc1)NC(=O)[C@H](C)NC(=O)C(C)(C)NC(=O)[C@H](CCC(N)=O)NC(=O)[C@H](C)NC(=O)[C@H](CCCCNC(=O)COCCOCCNC(=O)COCCOCCNC(=O)CC[C@H](NC(=O)CCCCCCCCCCCCCCCCC(=O)O)C(=O)O)NC(=O)[C@H](CCCCN)NC(=O)[C@H](CC(=O)O)NC(=O)[C@H](CC(C)C)NC(=O)[C@H](CC(C)C)NC(=O)[C@@H](NC(=O)[C@H](CO)NC(=O)[C@H](Cc1ccc(O)cc1)NC(=O)[C@H](CC(=O)O)NC(=O)[C@H](CO)NC(=O)[C@@H](NC(=O)[C@H](Cc1ccccc1)NC(=O)[C@@H](NC(=O)CNC(=O)[C@H](CCC(=O)O)NC(=O)C(C)(C)NC(=O)[C@@H](N)Cc1ccc(O)cc1)[C@@H](C)O)[C@@H](C)O)[C@@H](C)CC)C(=O)N[C@@H](CCC(=O)O)C(=O)NCC(=O)NCC(=O)N1CCC[C@H]1C(=O)N[C@@H](CO)C(=O)N[C@@H](CO)C(=O)NCC(N)=O [Example 299] (H-Y[Aib]EGTFTSDYSILLDKK([AEEA-AEEA-γGlu-C18 diacid])AQ[Aib]AFLEYLIEGGPSSG-NH2) | > 1040 | 0.734 | 2.54 | 0.932 | 54.3 |
| CC[C@H](C)[C@H](NC(=O)[C@H](CC(C)C)NC(=O)[C@H](Cc1ccc(O)cc1)NC(=O)[C@H](CCC(=O)O)NC(=O)[C@@H](NC(=O)[C@H](Cc1ccccc1)NC(=O)[C@H](C)NC(=O)C(C)(C)NC(=O)[C@H](CCC(N)=O)NC(=O)[C@H](C)NC(=O)[C@H](CCCCNC(=O)COCCOCCNC(=O)COCCOCCNC(=O)CC[C@H](NC(=O)CCCCCCCCCCCCCCCCCCC(=O)O)C(=O)O)NC(=O)[C@H](CCCCN)NC(=O)[C@H](CC(=O)O)NC(=O)[C@H](CC(C)C)NC(=O)[C@](C)(CC(C)C)NC(=O)[C@@H](NC(=O)[C@H](CO)NC(=O)[C@H](C)NC(=O)[C@H](CC(=O)O)NC(=O)[C@H](CO)NC(=O)[C@@H](NC(=O)[C@](C)(Cc1ccccc1)NC(=O)[C@@H](NC(=O)CNC(=O)[C@H](CCC(=O)O)NC(=O)C(C)(C)NC(=O)[C@@H](N)Cc1ccc(O)cc1)[C@@H](C)O)[C@@H](C)O)[C@@H](C)CC)[C@@H](C)CC)C(=O)N[C@@H](CCC(=O)O)C(=O)NCC(=O)NCC(=O)N1CCC[C@H]1C(=O)N[C@@H](CO)C(=O)N[C@@H](CO)C(=O)NCC(=O)N[C@@H](C)C(=O)N1CCC[C@H]1C(=O)N1CCC[C@H]1C(=O)N1CCC[C@H]1C(=O)N[C@@H](CO)C(N)=O [Example 145] (H-Y[Aib]EGT[αMeF]TSDASI[αMeL]LDKK([AEEA-AEEA-γGlu-C20 diacid])AQ[Aib]AFIEYLIEGGPSSGAPPPS-NH2) | 158 | 0.0652 | 0.0427 | 0.0514 | 2.22 |
| CC[C@H](C)[C@H](NC(=O)[C@H](CC(C)C)NC(=O)[C@](C)(Cc1ccc(O)cc1)NC(=O)[C@@H](CCC(=O)O)NC(=O)[C@@H](NC(=O)[C@H](Cc1ccccc1)NC(=O)[C@H](CCC(=O)O)NC(=O)C(C)(C)NC(=O)[C@H](CCC(N)=O)NC(=O)[C@H](C)NC(=O)[C@H](CCCCNC(=O)COCCOCCNC(=O)COCCOCCNC(=O)CC[C@H](NC(=O)CCCCCCCCCCCCCCCCC(=O)O)C(=O)O)NC(=O)[C@H](CCCN)NC(=O)[C@H](CC(=O)O)NC(=O)[C@H](CC(C)C)NC(=O)[C@](C)(CC(C)C)NC(=O)[C@@H](NC(=O)[C@H](CO)NC(=O)[C@H](Cc1ccncc1)NC(=O)[C@H](CC(=O)O)NC(=O)[C@H](CO)NC(=O)[C@@H](NC(=O)[C@](C)(Cc1ccccc1F)NC(=O)[C@@H](NC(=O)CNC(=O)[C@H](CCC(=O)O)NC(=O)C(C)(C)NC(=O)[C@@H](N)Cc1ccc(O)cc1)[C@@H](C)O)[C@@H](C)O)[C@@H](C)CC)[C@@H](C)CC)C(=O)N[C@@H](CCC(=O)O)C(=O)NCC(=O)NCC(=O)N1CCC[C@H]1C(=O)N[C@@H](CO)C(=O)N[C@@H](CO)C(=O)NCC(N)=O [Example 264] | 388 | 0.015 | 0.0229 | 0.0196 | 0.412 |
| CC[C@H](C)[C@H](NC(=O)[C@H](CC(C)C)NC(=O)[C@H](Cc1ccc(O)cc1)NC(=O)[C@H](CCC(=O)O)NC(=O)[C@@H](NC(=O)[C@H](Cc1ccccc1)NC(=O)[C@H](C)NC(=O)C(C)(C)NC(=O)[C@H](CCC(N)=O)NC(=O)[C@H](C)NC(=O)[C@H](CCCCNC(=O)COCCOCCNC(=O)CC[C@H](NC(=O)[C@H]1CC[C@H](CNC(=O)CCCCCCCCCCCCCCCCCCC(=O)O)CC1)C(=O)O)NC(=O)[C@H](CCCCN)NC(=O)[C@H](CC(=O)O)NC(=O)[C@H](CC(C)C)NC(=O)[C@H](CC(C)C)NC(=O)[C@@H](NC(=O)[C@H](CO)NC(=O)[C@H](Cc1ccc(O)cc1)NC(=O)[C@H](CC(=O)O)NC(=O)[C@H](CO)NC(=O)[C@@H](NC(=O)[C@H](Cc1ccccc1)NC(=O)[C@@H](NC(=O)CNC(=O)[C@H](CCC(=O)O)NC(=O)C(C)(C)NC(=O)[C@@H](N)Cc1ccc(O)cc1)[C@@H](C)O)[C@@H](C)O)[C@@H](C)CC)[C@@H](C)CC)C(=O)N[C@@H](CCC(=O)O)C(=O)NCC(=O)NCC(=O)N1CCC[C@H]1C(=O)N[C@@H](CO)C(=O)N[C@@H](CO)C(=O)NCC(=O)N[C@@H](C)C(=O)N1CCC[C@H]1C(=O)N1CCC[C@H]1C(=O)N1CCC[C@H]1C(=O)N[C@@H](CO)C(N)=O [Example 110] | 73.9 | 0.0395 | 0.179 | 0.218 | 4.38 |
